Data: patent publication US20190365790A1, “Compounds, Compositions and Methods for Prevention or Treatment of Liver and Lipid-related Conditions” (SIVANARAY INC., priority 2017, published 2019)

System: HFD-fed, streptozotocin (STZ) injected rats with type 2 diabetes (T2DM)
Test: Study 3 (BVISIV): plasma biochemical parameters in HFD + STZ type 2 diabetes rats
Format: in vivo
Conditions: for relative effectiveness in lowering serum triglyceride, LDL and ALT levels: 200 mg/kg/day oral, comparison among BVISIV formulations

Row | Structure (SMILES) | relative effectiveness in lowering serum triglyceride, LDL and ALT levels | lowering of glucose serum levels (200 mg/kg/day, end of 6 weeks, vs Group 2)
1 | O=C[C@H](O)[C@@H](O)[C@@H](O)[C@H](O)CO [BVISIV 5, Galactose] | effective | –
2 | O=C[C@@H](O)[C@H](O)[C@H](O)CO [BVISIV 6, Arabinose] | did not perform as well as the other formulations | –
3 | O=C[C@H](O)[C@@H](O)[C@@H](O)[C@H](O)C(=O)O [BVISIV 4, Galacturonic Acid] | – | most effective
